This assay has as its system T1, GmHXK15.
T1 construct: CDS in pET32a(+) (NcoI/XhoI), His-tagged fusion, E. coli Rosetta / DE3, Ni-NTA
Description: initial velocity, Michaelis-Menten / Eadie-Hofstee. The assay is classed as biochemical, Glycine max. Particulars: assay pH, temperature and ATP not stated.

Usually Km stands for the concentration of substrate that gives half-maximal velocity.

`OCC1(O)OC[C@@H](O)[C@@H](O)[C@@H]1O` (some centres unmarked) [fructose]: for the setting “varied fructose”, the Km was 1300 µM.

With `OC[C@H]1OC(O)[C@H](O)[C@@H](O)[C@@H]1O` (some centres unmarked) [glucose], for the setting “varied glucose”, the Michaelis constant (Km) was found to be 60 µM.

Values taken from paper PMC10490225, “Genome-Wide Characterization of Soybean Hexokinase Genes Reveals a Positive Role of GmHXK15 in Alkali Stress Response” (Plants, 2023).
